{"source": "patent US20100183597A1", "about": "“DRAK2 EXPRESSION IS ASSOCIATED WITH DIABETES” (priority 2007, published 2010)", "key": {"[1]": {"tested_on": "Drak2", "assay": "Drak2 protein levels in siRNA-transfected NIT-1 insulinoma cells by flow cytometry", "type": "cell-based, mouse", "settings": "NIT-1 cells; for Drak2 protein upregulation stimulated by FFA: siRNA transfected, cultured 24 h with FFA, intracellular Drak2 by flow cytometry (FIG. 2A); for Drak2 protein upregulation stimulated by cytokines: 24 h (FIG. 10B)", "text": "(§1) Drak2 Tg and WT islets were digested with 0.05% trypsin-EDTA to obtain single cell suspensions. The cells were fixed with 4% paraformaldehyde and permeabilized with 0.2% Triton X-100. They were stained with rabbit anti-Drak2 Ab (Abgent, San Diego, Calif.; 1:50 dilution) and anti-insulin mAb (Sigma, St. Louis, Mo.; 1:500 dilution). Subsequently, they were stained with FITC-conjugated sheep anti-rabbit antibody (Chemicon, Temecula, Calif.), and PE-conjugated goat anti-mouse antibody (Jackson Immunoresearch, West Grove, Pa.), and analyzed by 2-color flow cytometry. Dispersed islet cells or small interfering RNA (siRNA)-transfected NIT-1 cells were also analyzed for apoptosis by flow cytometry using FITC-annexin V staining (Murakami et al., 2004).\n(§2) NIT-1 cells, derived from mouse insulinoma, were transfected with siRNA using Lipofectamine 2000 (Invitrogen, Burlington, Ontario) according to the manufacturer's instructions. For Drak2 siRNA, the oligonucleotide RNA sequences were CAUCCCUGAAGAUGGCAGCtt and GCUGCCAUCUUCAGGGAUGtt. The control was the scrambled sequence of said siRNA with following sequences: 5′CCCUAAGUGUAGGACGCACtt and 3′GUGCGUCCUACACUUAGGGtt. Single stranded RNA pairs were annealed by being incubated for 1 min at 900 C, and then cooled down to room temperature over 45 min. The final concentration of double-stranded siRNA was 20 μM for transfection.\n(§3) Dispersed islet cells were fixed with 4% paraformaldehyde and permeabilized with 0.2% Triton X-100. For Drak2 and insulin detection, the cells were stained as described for confocal microscopy, and analyzed by 2-color flow cytometry. Dispersed islet cells or small interfering RNA (siRNA)-transfected NIT-1 cells were also analyzed for apoptosis by flow cytometry with FITC-annexin V staining (Murakami et al., 2004)).\n(§4) NIT-1 cells, derived from mouse insulinoma, were transfected with siRNA using Lipofectamine 2000 (Invitrogen, Burlington, Ontario) according to the manufacturer's instructions. Two siRNAs specific for Drak2 were employed. For Drak2 siRNA #1162, the oligonucleotide RNA sequences were CAUCCCUGAAGAUGGCAGCtt and GCUGCCAUCUUCAGGGAUGtt. For Drak2 siRNA #592, the oligonucleotide RNA sequences were UAACAUUGUUCACCUUGAUtt and AUCAAGGUGAACAAUGUUAtt. The control siRNA was the scrambled sequence of siRNA #1162 with the following sequences: 5′CCCUAAGUGUAGGACGCACtt and 3′GUGCGUCCUACACUUAGGGtt. Single-stranded RNA pairs were annealed by incubation for 1 min at 900 C, and then cooled down to room temperature over 45 min. The final concentration of double-stranded siRNA was 10 nM for transfection."}, "[2]": {"tested_on": "NIT-1 cells", "assay": "Apoptosis of NIT-1 cells by annexin V staining and flow cytometry", "type": "cell-based, mouse", "settings": "for FFA-induced apoptosis (annexin V): cultured 24 h with FFA (FIG. 2B)", "text": "as §1, §2, §3, §4\nNIT-1 cells were treated with IFN-g+IL-1b for 72 hours, with or without […] rapamycin. Drak2 siRNA were transfected to some cells at 24 hour, the apoptosis of cells were measured with Annexin-v staining."}, "[3]": {"tested_on": "p70S6 kinase", "assay": "p70S6 kinase phosphorylation in NIT-1 cell lysates by immunoblotting", "type": "cell-based, mouse", "settings": "NIT-1 cells, IFN-γ plus IL-1β or TNF-α plus IL-1β, siRNA transfected after 24 h, immunoblot after additional 24 h (FIG. 15B, 15C)", "procedure": "NIT-1 cells were transiently transfected with pCEP4-HA-Drak2 or empty vector pCEP4-HA. After 48 h, the cells were lysed and resolved in 10% SDS-PAGE (60 μg/lane) followed by immunoblotting. For HA-Drak2 expression, membrane was blotted with mouse anti-HA mAb (Santa Cruz, Santa Cruz, Calif.; 1:1000 dilution) followed by horse radish peroxidase (HRP)-conjugated sheep anti-mouse IgG (GE Health; 1:2000 dilution). To assess p70S6 kinase phosphorylation, the membrane was blotted with mouse anti-phospho-p70S6 kinase (Thr389) Ab (Cell Signaling, Danvers, Mass.; 1:1000 dilution) followed by HRP-conjugated sheep anti-mouse IgG (GE Health; 1:2000 dilution). The membrane was also blotted with rabbit anti-p70S6 kinase Ab (Cell Signaling, Danvers, Mass.; 1:1000 dilution) followed by HRP-conjugated donkey anti-rabbit IgG to show similar total p70S6 kinase protein. In some experiments, NIT-1 cells were stimulated with IFN-γ (1000 U/ml) plus IL-1β (0.5 ng/ml), or TNF-α (200 ng/ml) plus IL-1β (0.5 ng/ml). Twenty four hours later, they were transfected with two different Drak2 siRNAs (#592 and #1162), or with a control siRNA. After additional 24 hour, phospho-p70S6 kinase and total p70S6 kinase in the cell lysates were detected by immunoblotting as described above."}, "[4]": {"tested_on": "human islets", "assay": "Inflammatory cytokine-induced apoptosis of human islets, annexin V flow cytometry", "type": "cell-based", "settings": "TNF-a, IFN-g and IL1-b, 72 h (FIG. 19)", "procedure": "FIG. 19—Drak2 siRNA (designed based on the mouse Drak2 sequence) effectively protects human islets from inflammatory cytokine-induced apoptosis. Human islets were treated with cytokines (IFN-γ (1000 U/ml), IL-1β (0.5 ng/ml), TNF-α (200 ng/ml), 24 h later, they were transfected with a combination of 2 Drak2 siRNA (#592 and #1162, 10 nM each). At 72 h, the islets were harvested, dispersed and tested for annexin V expression by flow cytometry. The percentage of apoptotic cells (annexin V positive) is shown.\nas §3"}, "[5]": {"settings": "IFN-γ plus IL-1β or TNF-α plus IL-1β"}}, "data": [{"substance": "#592: Drak2 siRNA; oligonucleotide RNA sequences UAACAUUGUUCACCUUGAUtt and AUCAAGGUGAACAAUGUUAtt (SEQ ID Nos:7 and 8) (chain 1 UAACAUUGUUCACCUUGAUTT; chain 2 AUCAAGGUGAACAAUGUUATT; chemistry not fully specified)", "values": [{"measurement": "Drak2 protein upregulation stimulated by FFA", "setting": "[1]", "value": "inhibited Drak2 protein upregulation"}, {"measurement": "FFA-induced apoptosis (annexin V)", "setting": "[2]; siRNA transfected", "value": "prevented FFA-induced apoptosis"}, {"measurement": "cytokine-induced p70S6 kinase phosphorylation (phospho versus total p70S6 kinase)", "setting": "[3]", "value": "inhibited p70S6 kinase phosphorylation"}]}, {"substance": "#1162: Drak2 siRNA; oligonucleotide RNA sequences CAUCCCUGAAGAUGGCAGCtt and GCUGCCAUCUUCAGGGAUGtt (SEQ ID Nos: 5 and 6)", "values": [{"measurement": "Drak2 protein upregulation stimulated by cytokines", "setting": "[1]; [5]", "value": "prevented Drak2 protein upregulation"}, {"measurement": "Drak2 protein upregulation stimulated by FFA", "setting": "[1]", "value": "inhibited Drak2 protein upregulation"}, {"measurement": "FFA-induced apoptosis (annexin V)", "setting": "[2]; siRNA transfected", "value": "prevented FFA-induced apoptosis"}, {"measurement": "cytokine-induced p70S6 kinase phosphorylation (phospho versus total p70S6 kinase)", "setting": "[3]", "value": "inhibited p70S6 kinase phosphorylation"}]}, {"substance": "Drak2 siRNA: Drak2 siRNA without number; Example 4 sequences CAUCCCUGAAGAUGGCAGCtt and GCUGCCAUCUUCAGGGAUGtt, the same as #1162 (GCUGCCAUCUUCAGGGAUGTT; RNA strands with 3' tt overhangs, overhang chemistry not given here, further chemistry not given here)", "values": [{"measurement": "apoptosis induced by IFN-γ+IL-1β (annexin V)", "setting": "[2]; 72 h, rapamycin 250 nM, Drak2 siRNA transfected at 24 h, alone or combined (FIG. 18)", "value": "reduce apoptosis"}, {"measurement": "cytokine-induced apoptosis (annexin V)", "setting": "[2]; siRNA transfected, IFN-γ plus IL-1β or TNF-α plus IL-1β, 24 h (FIG. 10C)", "value": "dampened"}]}, {"substance": "control siRNA: scrambled sequence of siRNA #1162: 5′CCCUAAGUGUAGGACGCACtt and 3′GUGCGUCCUACACUUAGGGtt (SEQ ID Nos: 9 and 10) (chain 1 CCCUAAGUGUAGGACGCACTT; chain 2 GUGCGUCCUACACUUAGGGTT; RNA strands with 3' tt overhangs, overhang chemistry not given here, further chemistry not given here) [reference compound]", "values": [{"measurement": "Drak2 protein upregulation stimulated by cytokines", "setting": "[1]; [5]", "value": "no effect"}, {"measurement": "cytokine-induced Drak2 protein expression", "setting": "[1]; IFN-γ plus IL-1β or TNF-α plus IL-1β, siRNA transfected after 24 h, assayed at 48 h (FIG. 15A)", "value": "no effect"}, {"measurement": "Drak2 protein upregulation stimulated by FFA", "setting": "[1]", "value": "no effect"}, {"measurement": "cytokine-induced p70S6 kinase phosphorylation (phospho versus total p70S6 kinase)", "setting": "[3]", "value": "no effect"}, {"measurement": "effect on cytokine-induced apoptosis of human islets", "setting": "[4]", "value": "no effect"}]}]}
